According to ChEMBL document CHEMBL1139017, “Synthesis and biological activity of (+)-hedychilactone A and its analogs from (+)-sclareolide” (Bioorg Med Chem Lett, 2006):
In brackets after ≈: the same amount, converted by molar mass.

Assays:
[1] = test system: U-87 MG; assay: Cytotoxicity against U87 cancer cell line; type: functional, cell-based, U-87MG ATCC; conditions: Homo sapiens
[2] = test system: U373 MG; assay: Cytotoxicity against U373 cancer cell line; type: functional, cell-based, U-373MG ATCC; conditions: Homo sapiens
[3] = test system: SiHa; assay: Cytotoxicity against SiHa cancer cell line; type: functional, cell-based; conditions: Homo sapiens
[4] = test system: SK-OV-3; assay: Cytotoxicity against sk-ov-3 cancer cell line; type: functional, cell-based; conditions: Homo sapiens
[5] = test system: B16; assay: Cytotoxicity against B16 cancer cell line; type: functional, cell-based; conditions: Mus musculus
[6] = test system: HUVEC; assay: Antiangiogenic activity against HUVEC cells; type: functional, cell-based; conditions: Homo sapiens
[7] = test system: HUVEC; assay: Inhibition of NO production in HUVEC cells; type: functional, cell-based; conditions: Homo sapiens

CC1=CC[C@H]2C(C)(C)CCC[C@]2(C)[C@H]1CC=O
IC50 [1]: 11.7 µg/mL (≈ 49.9 µM) | IC50 [2]: 20.6 µg/mL (≈ 87.9 µM) | IC50 [3]: 20.9 µg/mL (≈ 89.2 µM) | IC50 [4]: 23.5 µg/mL (≈ 100 µM) | IC50 [5]: 21.8 µg/mL (≈ 93 µM) | IC50 [6]: 4.8 µg/mL (≈ 20.5 µM) | IC50 [7]: 6 µg/mL (≈ 25.6 µM)

C=C1[C@H](O)C[C@H]2C(C)(C)CCC[C@]2(C)[C@H]1C/C=C1\CCOC1=O
IC50 [1]: 12.7 µg/mL (≈ 39.9 µM) | IC50 [2]: 14.9 µg/mL (≈ 46.8 µM) | IC50 [3]: 32 µg/mL (≈ 100 µM) | IC50 [4]: 12.4 µg/mL (≈ 38.9 µM) | IC50 [5]: 16.7 µg/mL (≈ 52.4 µM) | IC50 [6]: 6.9 µg/mL (≈ 21.7 µM) | IC50 [7]: 13.2 µg/mL (≈ 41.4 µM)

CC1=CC[C@H]2C(C)(C)CCC[C@]2(C)[C@H]1C/C=C1/CCOC1=O
IC50 [1]: > 50 µg/mL | IC50 [2]: > 50 µg/mL | IC50 [3]: > 50 µg/mL | IC50 [4]: > 50 µg/mL | IC50 [5]: > 50 µg/mL | IC50 [6]: 4.3 µg/mL (≈ 14.2 µM) | IC50 [7]: > 25 µg/mL

C=C1CC[C@H]2C(C)(C)CCC[C@]2(C)[C@H]1C/C=C1/CCOC1=O
IC50 [1]: > 50 µg/mL | IC50 [2]: 40.4 µg/mL (≈ 134 µM) | IC50 [3]: > 50 µg/mL | IC50 [4]: 4.3 µg/mL (≈ 14.2 µM) | IC50 [5]: 17.6 µg/mL (≈ 58.2 µM) | IC50 [6]: 2.2 µg/mL (≈ 7.27 µM) | IC50 [7]: 4.5 µg/mL (≈ 14.9 µM)

C=C1CC[C@H]2C(C)(C)CCC[C@]2(C)[C@H]1CC=O
IC50 [1]: 4.1 µg/mL (≈ 17.5 µM) | IC50 [2]: 7 µg/mL (≈ 29.9 µM) | IC50 [3]: 14.5 µg/mL (≈ 61.9 µM) | IC50 [4]: 3.1 µg/mL (≈ 13.2 µM) | IC50 [5]: 4 µg/mL (≈ 17.1 µM) | IC50 [6]: 2.9 µg/mL (≈ 12.4 µM) | IC50 [7]: > 25 µg/mL

CC(=O)O[C@H]1C(=O)[C@@]2(C)[C@H]([C@H](OC(=O)c3ccccc3)[C@]3(O)C[C@H](OC(=O)[C@H](O)[C@@H](NC(=O)c4ccccc4)c4ccccc4)C(C)=C1C3(C)C)[C@]1(OC(C)=O)CO[C@@H]1C[C@@H]2O [PACLITAXEL]
IC50 [1]: 3.2 µg/mL (≈ 3.75 µM) | IC50 [3]: 1.3 µg/mL (≈ 1.52 µM) | IC50 [4]: 8.7 µg/mL (≈ 10.2 µM) | IC50 [5]: < 0.1 µg/mL | IC50 [6]: 0.3 µg/mL (≈ 0.351 µM)

C=C1CC[C@H]2C(C)(C)CCC[C@]2(C)[C@H]1C/C=C1\CCOC1=O
IC50 [1]: 5 µg/mL (≈ 16.5 µM) | IC50 [2]: 15.1 µg/mL (≈ 49.9 µM) | IC50 [3]: 20.2 µg/mL (≈ 66.8 µM) | IC50 [4]: 2 µg/mL (≈ 6.61 µM) | IC50 [5]: 17.6 µg/mL (≈ 58.2 µM) | IC50 [6]: 1.7 µg/mL (≈ 5.62 µM) | IC50 [7]: 5 µg/mL (≈ 16.5 µM)

C=C1C(=O)C[C@H]2C(C)(C)CCC[C@]2(C)[C@H]1C/C=C1\CCOC1=O
IC50 [1]: 1.7 µg/mL (≈ 5.37 µM) | IC50 [2]: 3.7 µg/mL (≈ 11.7 µM) | IC50 [3]: 7 µg/mL (≈ 22.1 µM) | IC50 [4]: 0.9 µg/mL (≈ 2.84 µM) | IC50 [5]: 3.4 µg/mL (≈ 10.7 µM) | IC50 [6]: 1.2 µg/mL (≈ 3.79 µM) | IC50 [7]: 0.7 µg/mL (≈ 2.21 µM)

C=C1C(=O)C[C@H]2C(C)(C)CCC[C@]2(C)[C@H]1C/C=C1/CCOC1=O
IC50 [1]: 1.43 µg/mL (≈ 4.52 µM) | IC50 [2]: 0.6 µg/mL (≈ 1.9 µM) | IC50 [3]: 3.4 µg/mL (≈ 10.7 µM) | IC50 [4]: 0.8 µg/mL (≈ 2.53 µM) | IC50 [5]: 1.5 µg/mL (≈ 4.74 µM) | IC50 [6]: 0.6 µg/mL (≈ 1.9 µM) | IC50 [7]: 0.9 µg/mL (≈ 2.84 µM)

C=C1[C@@H](O)C[C@H]2C(C)(C)CCC[C@]2(C)[C@H]1C/C=C1\CCOC1=O [HEDYCHILACTONE A]
IC50 [1]: 36.8 µg/mL (≈ 116 µM) | IC50 [2]: > 50 µg/mL | IC50 [3]: > 50 µg/mL | IC50 [4]: 8.7 µg/mL (≈ 27.3 µM) | IC50 [5]: > 50 µg/mL | IC50 [6]: 12.6 µg/mL (≈ 39.6 µM) | IC50 [7]: 11 µg/mL (≈ 34.5 µM)

C=C1[C@@H](O)C[C@H]2C(C)(C)CCC[C@]2(C)[C@H]1C/C=C1/CCOC1=O
IC50 [1]: > 50 µg/mL | IC50 [2]: 15.7 µg/mL (≈ 49.3 µM) | IC50 [3]: 31.7 µg/mL (≈ 99.5 µM) | IC50 [4]: 5.3 µg/mL (≈ 16.6 µM) | IC50 [5]: > 50 µg/mL | IC50 [6]: 13.8 µg/mL (≈ 43.3 µM) | IC50 [7]: 11.2 µg/mL (≈ 35.2 µM)

C=C1[C@H](O)C[C@H]2C(C)(C)CCC[C@]2(C)[C@H]1C/C=C1/CCOC1=O
IC50 [1]: > 50 µg/mL | IC50 [2]: > 50 µg/mL | IC50 [3]: > 50 µg/mL | IC50 [4]: 10.1 µg/mL (≈ 31.7 µM) | IC50 [5]: > 50 µg/mL | IC50 [6]: 12.4 µg/mL (≈ 38.9 µM) | IC50 [7]: 8 µg/mL (≈ 25.1 µM)

CC1=CC[C@H]2C(C)(C)CCC[C@]2(C)[C@H]1C/C=C1\CCOC1=O
IC50 [1]: 9.2 µg/mL (≈ 30.4 µM) | IC50 [2]: 4.7 µg/mL (≈ 15.5 µM) | IC50 [3]: 17 µg/mL (≈ 56.2 µM) | IC50 [4]: 6 µg/mL (≈ 19.8 µM) | IC50 [5]: 9.1 µg/mL (≈ 30.1 µM) | IC50 [6]: 2.6 µg/mL (≈ 8.6 µM) | IC50 [7]: 18 µg/mL (≈ 59.5 µM)
